Results: patent US8865914B2, “Fluorescent probes for detection of copper” (The Regents of the University of California, priority 2012, dated 2014)

How the values were obtained:
[1] = Spectroscopic fluorescence response to Cu(I) and its pH dependency in HEPES buffer; format: physicochemical; details: for fluorescence response to Cu(I): 20 mM HEPES, pH 7; for sensitivity of fluorescence to pH changes: physiological pH range
Experimental: (§1) Millipore water was used to prepare all aqueous solutions. All spectroscopic measurements were performed in 20 mM HEPES buffer, pH 7.0. Absorption spectra were recorded on a Varian Cary 50 spectrophotometer (Walnut Creek, Calif.) and fluorescence spectra were recorded on a Photo Technology International Quanta Master 4 L-format scan spectrofluorometer (Lawrenceville, N.J.) equipped with an LPS-220B 75-W xenon lamp and power supply, A-1010B lamp housing with integrated igniter, switchable 814 photocounting/analog photomultiplier detection unit, and MD5020 motor driver. Samples for absorption and emission measurements were contained in 1-cm×1-cm quartz cuvettes (1.4-mL volume, Starna, Atascadero, Calif.). Metals used in the selectivity assay were derived from their chloride salts or nitrate salts. The binding affinity of Cu^+ to the dyes was measured using thiourea as a competitive ligand to provide a buffered Cu^+ solution. Briefly, a 1-2 μM solution of dye was made in 20 mM HEPES, pH 7.0 and buffered with a known concentration of thiourea from a 500 mM stock in MilliQ H2O. Cu(I) was delivered in the form of [Cu(MeCN)4][PF6] from an acetonitrile stock solution (2 or 10 mM). The maximum acetonitrile concentration was 0.1%; this concentration of acetonitrile is not high enough to effectively compete with the dyes for Cu^+. Stability constants for thiourea binding were taken from the literature: β12=2.0×10^12, β13=2.0×10^14, β14=3.4×10^15. Martell, A. E.; Smith, R. M. Critical Stability Constants; Plenum Press: New York, 1989. The apparent dissociation constant (Kd) was determined using the following equation: (F−Fmin)/(Fmax−Fmin)=[Cu^+]/(Kd+[Cu^+]), where F is the observed fluorescence; Fmax is the fluorescence for the Cu^+:dye complex; Fmin is the fluorescence for the dye; and [Cu^+] is the ‘free’ Cu^+ available for complexation, which was calculated using the stability constants for thiourea and standard competition equilibrium expressions.

[2] = test system: HEK293 cells; assay: Flow cytometry and confocal live-cell imaging of intracellular Cu^+; format: cell-based, Human; details: HEK293 cells loaded with 100 μM copper chloride, with or without copper chelator
Experimental: Cells were grown in the Tissue Culture Facility at the University of California, Berkeley with expert technical assistance from Ann Fischer and Michelle Yasukawa. HEK (Human Embryonic Kidney) 293T cells were cultured in Dulbecco's Modified Eagle Medium (DMEM, Invitrogen, Carlsbad, Calif.) supplemented with 10% Fetal Bovine Serum (FBS, Invitrogen, Carlsbad, Calif.) and glutamine (2 mM). Two days before imaging, cells were passed and plated on 12-mm glass coverslips coated with poly-L-lysine ([…], Sigma, St. Louis, Mo.). For all experiments, solutions of dyes (from 5 mM stocks in DMSO) were made in Dulbecco's Phosphate buffered saline (DPBS, GIBCO) without calcium chloride, magnesium chloride, magnesium sulfate, sodium bicarbonate, or phenol red. For copper treatment, HEK 293T cells were cultured as described above. One day prior to imaging, 100 μM CuCl2 was added to cells from a 100 mM aqueous stock solution. Cells were then incubated at 37° C., 5% CO2. After 10-12 hours, the media was exchanged for DPBS. Flowcytometry were performed with LSRFortessaTM cell analyzer (BD Biosciences) equipping 640 nm red laser and PE-Cy7 band pass filter. Cells were prepared as described above, and then 3-5 μM CS788 or […] […] Confocal fluorescence images were acquired at the Molecular Imaging Center at the University of California, Berkeley. […]

[3] = test system: SKH1 mice; assay: Fluorescence imaging experiments in living mice; format: in vivo; details: for detection of endogenous levels of copper in mice: fluorescence imaging in mice; for detection of changes in copper levels in living mice: mice injected i.p. with copper chloride, copper chelator (ATN-224) or both, then dye
Experimental: Fluorescence images of mice were acquired using a Xenogen IVIS Spectrum instrument. SKH1 mice were obtained from Charles River Labs. Mice were single or group-housed on a 12:12 light-dark cycle at 22° C. with free access to food and water. SKH1 mice, aged 5-10 weeks, were anesthetized with isoflurane and injected with 1) DPBS (i.p., 100 μL), 2) CuCl2 (i.p., 5 mg/kg in 50 μL of DPBS) and DBPS (i.p., 50 μL), 3) CuCl2 (i.p., 5 mg/kg in 50 μL of DPBS) and ATN-224 (i.p., 5 mg/kg in 50 μL of DPBS), or 4) ATN-224 (i.p., 5 mg/kg in 50 μL of DPBS) and DBPS (i.p., 50 μL). 0-24 hours later, the mice were anesthetized with isoflurane and injected (i.p.) with DPBS (50 μL) or a dye (0.1 mM, 50 μL) and imaged immediately or up to 10 days later. All animal studies were approved and performed according to the guidelines of the Animal Care and Use Committee of the University of California, Berkeley.

[4] = Metal selectivity assay (fluorescence response to various metal ions); format: binding; details: 20 mM HEPES, pH 7
Experimental: as §1, with “Briefly, a 1-2 μM solution of dye was made in 20 mM HEPES, pH 7.0 and buffered with a known concentration of thiourea from a 500 mM stock in MilliQ H2O. Cu(I) was delivered in the form of [Cu(MeCN)4][PF6] from an acetonitrile stock solution (2 or 10 mM). The maximum acetonitrile concentration was 0.1%; this concentration of acetonitrile is not high enough to effectively compete with the dyes for Cu^+. Stability constants for thiourea binding were taken from the literature: β12=2.0×10^12, β13=2.0×10^14, β14=3.4×10^15. Martell, A. E.; Smith, R. M. Critical Stability Constants; Plenum Press: New York, 1989.” left out

Structure (SMILES)	fluorescence response to Cu(I) [1]	sensitivity of fluorescence to pH changes [1]	detection of copper level changes in living cells [2]	detection of endogenous levels of copper in mice [3]	detection of changes in copper levels in living mice [3]	selectivity for Cu(I) over other transition metals, alkali metals and alkali earth metals [4]	changes in integrated fluorescence from individual mice ([3]; two-tailed Student's t-test, P<0.05, n=3, except the change between CS790AM and copper, ATN-244, and CS790AM)
CCCN1/C(=C/C=C2\CCCC(/C=C/C3=[N+](CCC)c4ccccc4C3(C)C)=C2Oc2ccc(N(CCSCCSCC)CCSCCSCC)cc2)C(C)(C)c2ccccc21.[I-] [CS788]	large fluorescence increase	insensitive to pH changes	increased fluorescence in cells loaded with copper chloride	able to detect endogenous levels of copper	can detect changes in copper levels in mice	bind selectively to Cu(I)	–
CSCCCNc1ccc(OC2=C(/C=C/C3=[N+](CCC(=O)OCOC(C)=O)c4ccccc4C3(C)C)CCC/C2=C\C=C2\N(CCC(=O)OCOC(C)=O)c3ccccc3C2(C)C)cc1SCCCSC.[Br-] [CS790AM]	large fluorescence increase	insensitive to pH changes	increased fluorescence in cells loaded with copper chloride	able to detect endogenous levels of copper	can detect changes in copper levels in mice	bind selectively to Cu(I)	statistically significant
